Several values for one entry are separate records, joined by “and”; a condition that tells them apart may be missing. Identical values can stand only once.
Test system: 556581-035-R-J1 tumor spheroid viability, % test/control
Test: Anticancer human tumor 556581-035-R-J1 patient-derived ovarian carcinoma cell line growth inhibition
Conditions: spheroids with HUVEC and MSC; for viability, T/C: stronger effect = lower value
How it was run: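 Complex tumor spheroids combined malignant cells with endothelial cells and mesenchymal stem cells. DNA-damaging drugs and DNA repair inhibitors were tested alone and in combination, at half-log dilutions down from clinical Cmax (top 10 microM if Cmax unknown), 0.25% DMSO final.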

[1] = curve of first compound, second compound 1 µM
[2] = curve of first compound, second compound 3.16 µM
[3] = curve of first compound, second compound 10 µM
[4] = curve of first compound, second compound 31.6 µM
[5] = curve of first compound, second compound 100 µM
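Further: spheroids exposed to compounds for 7 days before viability read.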

**Q.** `O=C(c1cc(Cc2n[nH]c(=O)c3ccccc23)ccc1F)N1CCN(C(=O)C2CC2)CC1` + Cn1nnc2c(C(N)=O)ncn2c1=O was tested. Which IC50 [1] did it give?
**A.** > 30000 nM

**Q.** What about the IC50 [2] of the same compound?
**A.** > 30000 nM

**Q.** What about the IC50 [3] of the same compound?
**A.** > 30000 nM

**Q.** And the IC50 [4]?
**A.** > 30000 nM

**Q.** What about the IC50 [5] of the same compound?
**A.** > 30000 nM

**Q.** And the viability, T/C (second compound 1 µM, first compound 0.0949 µM)?
**A.** 99%

**Q.** What about the viability, T/C (second compound 1 µM, first compound 0.3 µM) of the same compound?
**A.** 100%

**Q.** And the viability, T/C (second compound 1 µM, first compound 0.949 µM)?
**A.** 102%

**Q.** What about the viability, T/C (second compound 1 µM, first compound 3 µM) of the same compound?
**A.** 90.8%

**Q.** What about the viability, T/C (second compound 1 µM, first compound 9.49 µM) of the same compound?
**A.** 80.2%

**Q.** What about the viability, T/C (second compound 1 µM, first compound 30 µM) of the same compound?
**A.** 71.9%

**Q.** What about the viability, T/C (second compound 3.16 µM, first compound 0.0949 µM) of the same compound?
**A.** 100%

**Q.** What about the viability, T/C (second compound 3.16 µM, first compound 0.3 µM) of the same compound?
**A.** 99.8%

**Q.** What about the viability, T/C (second compound 3.16 µM, first compound 0.949 µM) of the same compound?
**A.** 95.4%

**Q.** What about the viability, T/C (second compound 3.16 µM, first compound 3 µM) of the same compound?
**A.** 89.9%

**Q.** What about the viability, T/C (second compound 3.16 µM, first compound 9.49 µM) of the same compound?
**A.** 82.4%

**Q.** And the viability, T/C (second compound 3.16 µM, first compound 30 µM)?
**A.** 63.9%

**Q.** And the viability, T/C (second compound 10 µM, first compound 0.0949 µM)?
**A.** 98.6%

**Q.** And the viability, T/C (second compound 10 µM, first compound 0.3 µM)?
**A.** 100%

**Q.** What about the viability, T/C (second compound 10 µM, first compound 0.949 µM) of the same compound?
**A.** 98.7%

**Q.** And the viability, T/C (second compound 10 µM, first compound 3 µM)?
**A.** 89.1%

**Q.** And the viability, T/C (second compound 10 µM, first compound 9.49 µM)?
**A.** 74.6%

**Q.** What about the viability, T/C (second compound 10 µM, first compound 30 µM) of the same compound?
**A.** 64.3%

**Q.** What about the viability, T/C (second compound 31.6 µM, first compound 0.0949 µM) of the same compound?
**A.** 104%

**Q.** What about the viability, T/C (second compound 31.6 µM, first compound 0.3 µM) of the same compound?
**A.** 101%

**Q.** And the viability, T/C (second compound 31.6 µM, first compound 0.949 µM)?
**A.** 90.3%

**Q.** And the viability, T/C (second compound 31.6 µM, first compound 3 µM)?
**A.** 85.3%

**Q.** What about the viability, T/C (second compound 31.6 µM, first compound 9.49 µM) of the same compound?
**A.** 70.9%

**Q.** And the viability, T/C (second compound 31.6 µM, first compound 30 µM)?
**A.** 62.9%

**Q.** And the viability, T/C (second compound 100 µM, first compound 0.0949 µM)?
**A.** 92.7%

**Q.** And the viability, T/C (second compound 100 µM, first compound 0.3 µM)?
**A.** 83.6%

**Q.** And the viability, T/C (second compound 100 µM, first compound 0.949 µM)?
**A.** 80.2%

**Q.** And the viability, T/C (second compound 100 µM, first compound 3 µM)?
**A.** 70.6%

**Q.** What about the viability, T/C (second compound 100 µM, first compound 9.49 µM) of the same compound?
**A.** 67.9%

**Q.** And the viability, T/C (second compound 100 µM, first compound 30 µM)?
**A.** 54.7%

**Q.** Which results are given for `CC1COCCN1c1cc(-c2ccnn2C)c2ccnc(-c3ccn[nH]3)c2n1` (configuration not stated) + Cn1nnc2c(C(N)=O)ncn2c1=O?
**A.** IC50 [1]: 565 nM; IC50 [2]: 591 nM; IC50 [3]: 679 nM; IC50 [4]: 604 nM; IC50 [5]: 392 nM; viability, T/C (second compound 1 µM, first compound 0.0316 µM): 93.7%; viability, T/C (second compound 1 µM, first compound 0.1 µM): 69.3%; viability, T/C (second compound 1 µM, first compound 0.316 µM): 56.3%; viability, T/C (second compound 1 µM, first compound 1 µM): 43.7%; viability, T/C (second compound 1 µM, first compound 3.16 µM): 39.9%; viability, T/C (second compound 1 µM, first compound 10 µM): 33%; viability, T/C (second compound 3.16 µM, first compound 0.0316 µM): 90.6%; viability, T/C (second compound 3.16 µM, first compound 0.1 µM): 72.5%; viability, T/C (second compound 3.16 µM, first compound 0.316 µM): 56.4%; viability, T/C (second compound 3.16 µM, first compound 1 µM): 44.2%; viability, T/C (second compound 3.16 µM, first compound 3.16 µM): 37.8%; viability, T/C (second compound 3.16 µM, first compound 10 µM): 32.5%; viability, T/C (second compound 10 µM, first compound 0.0316 µM): 86.8%; viability, T/C (second compound 10 µM, first compound 0.1 µM): 71%; viability, T/C (second compound 10 µM, first compound 0.316 µM): 56%; viability, T/C (second compound 10 µM, first compound 1 µM): 45.9%; viability, T/C (second compound 10 µM, first compound 3.16 µM): 40%; viability, T/C (second compound 10 µM, first compound 10 µM): 31.2%; viability, T/C (second compound 31.6 µM, first compound 0.0316 µM): 88.9%; viability, T/C (second compound 31.6 µM, first compound 0.1 µM): 71.6%; viability, T/C (second compound 31.6 µM, first compound 0.316 µM): 54.6%; viability, T/C (second compound 31.6 µM, first compound 1 µM): 45.8%; viability, T/C (second compound 31.6 µM, first compound 3.16 µM): 39.1%; viability, T/C (second compound 31.6 µM, first compound 10 µM): 33.4%; viability, T/C (second compound 100 µM, first compound 0.0316 µM): 82.8%; viability, T/C (second compound 100 µM, first compound 0.1 µM): 63.8%; viability, T/C (second compound 100 µM, first compound 0.316 µM): 51.7%; viability, T/C (second compound 100 µM, first compound 1 µM): 42.8%; viability, T/C (second compound 100 µM, first compound 3.16 µM): 38.1%; viability, T/C (second compound 100 µM, first compound 10 µM): 32.8%

**Q.** For `COc1ccc([C@@H](O)c2cc(-c3ncnc4cc(N5CCOCC5)ccc34)c(F)cc2Cl)nn1`, which viability, T/C (compound 0.0316 µM) is on record?
**A.** 103% and 102% and 98.8%

**Q.** What about the viability, T/C (compound 0.1 µM) of the same compound?
**A.** 104% and 111% and 99.6%

**Q.** And the viability, T/C (compound 0.316 µM)?
**A.** 81.3% and 90.1% and 91%

**Q.** And the viability, T/C (compound 1 µM)?
**A.** 61.1% and 70.3% and 64.7%

**Q.** What about the viability, T/C (compound 3.16 µM) of the same compound?
**A.** 40.9% and 49.5% and 41.4%

**Q.** What about the viability, T/C (compound 10 µM) of the same compound?
**A.** 31.9% and 35.1% and 31.1%

**Q.** What about the IC50 (curve of compound) of the same compound?
**A.** 1810 nM and 2830 nM and 2020 nM

Source: PubChem BioAssay AID1845199 (Molecular Pharmacology Branch, DTP, NCI, 2023)
